Assay results taken from US11912710B2 (UPPTHERA, INC., priority 2021, dated 2024).

Tests used:
Assay type in all cases: cell-based
NCI-H526 cell line = assay: Cell viability assay for H526 cell line; settings: Homo sapiens, NCI-H526, 120 h; H526 cells, 5 days, EZ-Cytox, 3000 nM to 0.46 nM
Method: 3. Cell Viability Assay for H526 Cell Line
(1) Culture of NCI-H526 Cell Line
(2) Treatment of Compounds of the Present Invention and Method of Cell Viability Assay
After treating the compound to each well to make the total volume of 200 μL, it was cultured in a CO2 incubator (Thermo Fisher Science, Cat. No. 4111) for 5 days.
The absorbance of the completely cultured sample was measured by setting the wavelength of a plate reader (BMG Labtech, CLARIOstar Plus) to […], and was measured after shaking for 3 minutes in a plate reader before measurement.
In Table 3, Activity represents IC50 value of each Exemplary Compound treatment group to H526 cell line (A: <30 nM, B: <50 nM, C: <100 nM, D: <200 nM, E: <400 nM).

MRC-5 cell line = assay: Cell viability assay (cytotoxicity) for MRC-5 cell line; settings: Homo sapiens, MRC5, 120 h; MRC-5 normal cell line, 5 days, EZ-Cytox, 10000 nM to 1.52 nM; read-out: Activity: IC50 value to MRC-5 cell line (Exemplary Compounds)
Method: 4. Cell Viability Assay for MRC-5 Cell Line
(1) Culture of MRC-5 Cell Line
Passage of cultured cells was maintained within P15.
(2) Treatment of Compounds of the Present Invention
Then, it was cultured in 37° C.
(3) Cytotoxicity Experiment
CO2 incubator for 4 hours.
Cell Viability Assay for MRC-5 cell line

PLK1 = biological target: T1, PLK1 (Homo sapiens, UniProt P53350); assay: Luciferase assay for PLK1 in HeLa LgBit (Plk1-HiBit KI) cell line; settings: 300 nM compound, luminescence after 9 hours, read-out: Activity: ratio of the luminescense value of compound treatment group to DMSO treatment group
T1 construct: endogenous in cells; host or cells: HeLa LgBit (Plk1-HiBit KI): HeLa cells stably expressing LgBit, with HiBit knocked into the endogenous Plk1 locus by CRISPR/Cas9
Method: 2. Luciferase Assay for PLK1
(1) Preparation and Culture of HeLa LgBit (Plk1-HiBit KI) Cell Line
A HeLa cell line in which the LgBit vector was transfected and expressed stably was prepared. Then, after constructing gRNA and donor to express the HiBit amino acid sequence behind the C-terminal of the Plk1 gene, which was inherent in the cell, it was inserted into the cell together with a vector capable of expressing CRISPR/Cas9. Only the cells in which the insertion was completed and knock-in had progressed were selected, sub-cultured and used.
(2) Treatment of Compounds of the Present Invention and Method of Luciferase Assay
In the case of HeLa LgBit (Plk1-HiBit KI), the compounds were treated after being released after thymidine block, and the process was as follows. Thymidine (Sigma-Aldrich Cat. No. T9250-5G) was completely dissolved in DW and used in the experiment. For thymidine block, the products were treated with 2 mM of thymidine and then incubated for 24 hours. For release and chemical treatment, the medium was suctioned and washed with 1×PBS. TrypLE™ was added and incubated in 37° C. CO2 incubator for 5 min. Cells neutralized by adding complete media were counted through a counter. For each well of a 96-well culture plate (SPL), 3.3×10^4 cells and a total medium volume of 150 μL were seeded and incubated in a CO2 incubator.
Each cell line was incubated in a CO2 incubator for 18 hours, and Endurazine was added to each well to make up 4% of the total volume. After adding the compound of the present invention in a 96-well white plate (SPL) to a concentration of 300 nM, the wavelength of the plate reader (BMG Labtech, CLARIOstar Plus) was set to […], and then the luminescence was tracked in real time.
In Table 2, Activity represents the ratio of the luminescense value of each Exemplary Compound treatment group to DMSO treatment group (+++: <0.3, ++<0.6, +<0.7).

T1 sequence (P53350 whole entry): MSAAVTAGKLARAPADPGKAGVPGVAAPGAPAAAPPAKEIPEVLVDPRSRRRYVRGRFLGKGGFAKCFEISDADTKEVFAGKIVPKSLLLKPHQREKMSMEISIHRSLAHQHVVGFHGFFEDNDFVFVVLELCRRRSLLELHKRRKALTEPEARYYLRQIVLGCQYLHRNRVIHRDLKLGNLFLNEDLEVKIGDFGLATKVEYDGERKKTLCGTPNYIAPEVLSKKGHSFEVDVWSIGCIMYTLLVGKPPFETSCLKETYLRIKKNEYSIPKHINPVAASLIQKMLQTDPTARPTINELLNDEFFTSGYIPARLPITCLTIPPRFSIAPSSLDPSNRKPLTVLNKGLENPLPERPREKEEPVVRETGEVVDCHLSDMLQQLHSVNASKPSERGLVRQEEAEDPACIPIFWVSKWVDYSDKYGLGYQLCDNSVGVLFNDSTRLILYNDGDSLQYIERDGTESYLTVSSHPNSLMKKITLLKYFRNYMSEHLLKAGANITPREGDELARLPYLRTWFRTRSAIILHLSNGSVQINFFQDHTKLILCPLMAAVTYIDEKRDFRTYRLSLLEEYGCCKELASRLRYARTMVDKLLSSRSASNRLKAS

remaining activity at 0.3 µM (PLK1)	SMILES	IC50 (NCI-H526 cell line)	IC50 (MRC-5 cell line)
< 30%	COc1cc(C(=O)NC2CCN(C(=O)CCN3CCN(c4ccc(C5CCC(=O)NC5=O)cc4F)CC3)CC2)ccc1Nc1ncc2c(n1)N(C1CCCC1)CC(F)(F)C(=O)N2C (stereo not drawn) [Compound 11, 4-((9-cyclopentyl-7,7-difluoro-5-methyl-6-oxo-6,7,8,9-tetrahydro-5H-pyrimido[4,5-b][1,4]diazepin-2-yl)amino)-N-(1-(3-(4-(4-(2,6-dioxopiperidin-3-yl)-2-fluorophenyl)piperazin-1-yl)propanoyl)piperidin-4-yl)-3-methoxybenzamide]	< 0.03 µM	> 10 µM
< 30%	COc1cc(C(=O)NN2CCC(CCN3CCN(c4ccc(C5CCC(=O)NC5=O)cc4F)CC3)CC2)ccc1Nc1ncc2c(n1)N(C1CCCC1)CC(F)(F)C(=O)N2C (stereo not drawn) [Compound 12, 4-((9-cyclopentyl-7,7-difluoro-5-methyl-6-oxo-6,7,8,9-tetrahydro-5H-pyrimido[4,5-b][1,4]diazepin-2-yl)amino)-N-(4-(2-(4-(4-(2,6-dioxopiperidin-3-yl)-2-fluorophenyl)piperazin-1-yl)ethyl)piperidin-1-yl)-3-methoxybenzamide]	< 0.03 µM	20 µM
< 30%	COc1cc(C(=O)NN2CCC([C@@H](C)CN3CCN(c4ccc(C5CCC(=O)NC5=O)cc4F)CC3)CC2)ccc1Nc1ncc2c(n1)N(C1CCCC1)CC(F)(F)C(=O)N2C (stereo partly drawn) [Compound 19, 4-((9-cyclopentyl-7,7-difluoro-5-methyl-6-oxo-6,7,8,9-tetrahydro-5H-pyrimido[4,5-b][1,4]diazepin-2-yl)amino)-N-(4-((2R)-1-(4-(4-(2,6-dioxopiperidin-3-yl)-2-fluorophenyl)piperazin-1-yl)propan-2-yl)piperidin-1-yl)-3-methoxybenzamide]	< 0.03 µM	> 10 µM
< 30%	COc1cc(C(=O)NN2CCC([C@H](C)CN3CCN(c4ccc(C5CCC(=O)NC5=O)cc4F)CC3)CC2)ccc1Nc1ncc2c(n1)N(C1CCCC1)CC(F)(F)C(=O)N2C (stereo partly drawn) [Compound 20, 4-((9-cyclopentyl-7,7-difluoro-5-methyl-6-oxo-6,7,8,9-tetrahydro-5H-pyrimido[4,5-b][1,4]diazepin-2-yl)amino)-N-(4-((2S)-1-(4-(4-(2,6-dioxopiperidin-3-yl)-2-fluorophenyl)piperazin-1-yl)propan-2-yl)piperidin-1-yl)-3-methoxybenzamide]	< 0.05 µM	> 10 µM

The remaining lines, values behind:

SMILES	remaining activity at 0.3 µM (PLK1)	IC50 (NCI-H526 cell line)	IC50 (MRC-5 cell line)
COc1cc(C(=O)NC2CCN(C(=O)CC3CCN(c4ccc(C5CCC(=O)NC5=O)cc4F)CC3)CC2)ccc1Nc1ncc2c(n1)N(C1CCCC1)CC(F)(F)C(=O)N2C (stereo not drawn) [Compound 10, 4-((9-cyclopentyl-7,7-difluoro-5-methyl-6-oxo-6,7,8,9-tetrahydro-5H-pyrimido[4,5-b][1,4]diazepin-2-yl)amino)-N-(1-(2-(1-(4-(2,6-dioxopiperidin-3-yl)-2-fluorophenyl)piperidin-4-yl)acetyl)piperidin-4-yl)-3-methoxybenzamide]	< 30%	< 0.05 µM	> 10 µM
COc1cc(C(=O)NC2CCCN(C(=O)CN3CCN(c4ccc(C5CCC(=O)NC5=O)cc4F)CC3)C2)ccc1Nc1ncc2c(n1)N(C1CCCC1)CC(F)(F)C(=O)N2C (stereo not drawn) [Compound 13, 4-((9-cyclopentyl-7,7-difluoro-5-methyl-6-oxo-6,7,8,9-tetrahydro-5H-pyrimido[4,5-b][1,4]diazepin-2-yl)amino)-N-(1-(2-(4-(4-(2,6-dioxopiperidin-3-yl)-2-fluorophenyl)piperazin-1-yl)acetyl)piperidin-3-yl)-3-methoxybenzamide]	< 60%	< 0.05 µM	> 10 µM
COc1cc(C(=O)NC2CCCN(C(=O)CCN3CCN(c4ccc(C5CCC(=O)NC5=O)cc4F)CC3)C2)ccc1Nc1ncc2c(n1)N(C1CCCC1)CC(F)(F)C(=O)N2C (stereo not drawn) [Compound 14, 4-((9-cyclopentyl-7,7-difluoro-5-methyl-6-oxo-6,7,8,9-tetrahydro-5H-pyrimido[4,5-b][1,4]diazepin-2-yl)amino)-N-(1-(3-(4-(4-(2,6-dioxopiperidin-3-yl)-2-fluorophenyl)piperazin-1-yl)propanoyl)piperidin-3-yl)-3-methoxybenzamide]	< 60%	< 0.1 µM	> 10 µM
COc1cc(C(=O)NC2CC3(CCN(CC4CCN(c5ccc(C6CCC(=O)NC6=O)cc5F)CC4)CC3)C2)ccc1Nc1ncc2c(n1)N(C1CCCC1)CC(F)(F)C(=O)N2C (stereo not drawn) [Compound 15, 4-((9-cyclopentyl-7,7-difluoro-5-methyl-6-oxo-6,7,8,9-tetrahydro-5H-pyrimido[4,5-b][1,4]diazepin-2-yl)amino)-N-(7-((1-(4-(2,6-dioxopiperidin-3-yl)-2-fluorophenyl)piperidin-4-yl)methyl)-7-azaspiro[3.5]nonan-2-yl)-3-methoxybenzamide]	< 30%	< 0.03 µM	> 10 µM
COc1cc(C(=O)NC2CC3(CCN(CC4CCN(c5ccc(C6CCC(=O)NC6=O)cc5)CC4)CC3)C2)ccc1Nc1ncc2c(n1)N(C1CCCC1)CC(F)(F)C(=O)N2C (stereo not drawn) [Compound 16, 4-((9-cyclopentyl-7,7-difluoro-5-methyl-6-oxo-6,7,8,9-tetrahydro-5H-pyrimido[4,5-b][1,4]diazepin-2-yl)amino)-N-(7-((1-(4-(2,6-dioxopiperidin-3-yl)phenyl)piperidin-4-yl)methyl)-7-azaspiro[3.5]nonan-2-yl)-3-methoxybenzamide]	< 30%	< 0.03 µM	9.12 µM
COc1cc(C(=O)NC2CCN(CC3CC4(CCN(c5ccc(C6CCC(=O)NC6=O)cc5F)CC4)C3)CC2)ccc1Nc1ncc2c(n1)N(C1CCCC1)CC(F)(F)C(=O)N2C (stereo not drawn) [Compound 21, 4-((9-cyclopentyl-7,7-difluoro-5-methyl-6-oxo-6,7,8,9-tetrahydro-5H-pyrimido[4,5-b][1,4]diazepin-2-yl)amino)-N-(1-((7-(4-(2,6-dioxopiperidin-3-yl)-2-fluorophenyl)-7-azaspiro[3.5]nonan-2-yl)methyl)piperidin-4-yl)-3-methoxybenzamide]	< 30%	< 0.05 µM	> 10 µM
COc1cc(C(=O)NCC2CCN(CC3CCN(c4ccc(C5CCC(=O)NC5=O)cc4F)CC3)CC2)ccc1Nc1ncc2c(n1)N(C1CCCC1)CC(F)(F)C(=O)N2C (stereo not drawn) [Compound 22, 4-((9-cyclopentyl-7,7-difluoro-5-methyl-6-oxo-6,7,8,9-tetrahydro-5H-pyrimido[4,5-b][1,4]diazepin-2-yl)amino)-N-((1-((1-(4-(2,6-dioxopiperidin-3-yl)-2-fluorophenyl)piperidin-4-yl)methyl)piperidin-4-yl)methyl)-3-methoxybenzamide]	< 30%	< 0.03 µM	> 10 µM
COc1cc(C(=O)NCC2CC23CCN(CC2CCN(c4ccc(C5CCC(=O)NC5=O)cc4F)CC2)CC3)ccc1Nc1ncc2c(n1)N(C1CCCC1)CC(F)(F)C(=O)N2C (stereo not drawn) [Compound 24, 4-((9-cyclopentyl-7,7-difluoro-5-methyl-6-oxo-6,7,8,9-tetrahydro-5H-pyrimido[4,5-b][1,4]diazepin-2-yl)amino)-N-((6-((1-(4-(2,6-dioxopiperidin-3-yl)-2-fluorophenyl)piperidin-4-yl)methyl)-6-azaspiro[2.5]octan-1-yl)methyl)-3-methoxybenzamide]	< 30%	< 0.05 µM	> 10 µM
